From PMC7496690, “Structure‐Activity Relationship and Crystallographic Studies on 4‐Hydroxypyrimidine HIF Prolyl Hydroxylase Domain Inhibitors” (Chemmedchem, 2019)
Read-outs that look alike come from different tables or passages of the source.

How the values were obtained:
[1] = molecular target: T1, viral collagen prolyl hydroxylase (vCPH) (Paramecium bursaria Chlorella virus 1, UniProt Q84406); experiment: MALDI-TOF MS vCPH hydroxylation assay; type: biochemical
T1 construct: made in house
Protocol: (§1) Supplementary Information presence of Fe(II) (50 μM), 2OG (25 μM), L-ascorbic acid (100 μM) and RPS2351-70 (25 μM) in HEPES (50 mM, pH 7.5) at 37 °C for 15 min. Reagent solutions were made as previously reported.[23] Reactions were quenched with formic acid (1 % v/v). Samples were prepared by mixing reaction mixture (1 μL) with α-cyano-4-hydrocinnamic acid (CHCA) solution (water:acetonitrile 1:1) (1 μL). Dose-response was assessed in 8-point triplicates.
(§2) Data were analysed using GraphPad Prism 5.04.

Hep‐3B human cell line = experiment: Cellular HIF-1α stabilization by immunoblotting; type: cell-based; details: Hep3B, 3 hours, immunoblot
Protocol: Other factors including cell penetration and metabolism likely impact on cellular activity.
Supplementary Information
Figure S7: Immunoblots of Hep3B cells treated with 100 μM (A) and 20 μM (B) PHD inhibitors for 3 hours. The blots show protein levels of HIF1-α and β-actin at the 3rd hour. Protocols for cell culture and immunoblotting have been previously reported.[2] […]

KDM4A [2] = molecular target: T2, KDM4A (Homo sapiens, UniProt O75164); experiment: biochemical
T2 sequence (O75164 1-359 limits assumed): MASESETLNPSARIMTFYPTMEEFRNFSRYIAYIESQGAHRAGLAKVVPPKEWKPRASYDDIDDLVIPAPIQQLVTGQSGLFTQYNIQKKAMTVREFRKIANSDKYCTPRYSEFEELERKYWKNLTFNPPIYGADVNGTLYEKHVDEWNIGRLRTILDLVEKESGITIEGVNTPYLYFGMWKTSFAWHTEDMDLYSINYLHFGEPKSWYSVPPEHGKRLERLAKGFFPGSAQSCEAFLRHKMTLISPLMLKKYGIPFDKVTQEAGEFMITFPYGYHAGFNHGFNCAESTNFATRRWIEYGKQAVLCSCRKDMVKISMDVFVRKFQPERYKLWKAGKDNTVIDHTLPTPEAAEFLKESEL
Protocol: RapidFire-MS KDM4A hydroxylation assays
(§3) (RF-MS). […] The KDM4A RF-MS assay measures
(§4) depletion of a histone H3-K9 (Me3) peptide substrate and appearance of the dimethyl peptide
(§5) oxoglutarate (2OG, code K3752) were from Sigma Aldrich (Poole, Dorset). The H3K9Me3 peptide
(§6) each day to a concentration of 50 mM in deionized water, ferrous ammonium sulphate was prepared
(§7) freshly each day by dissolving to 400 mM in 10 mM HCl and then dilution to 1 mM in deionized
(§8) water, 2OG was prepared freshly each day by dissolving in 10 mM in deionized water. The
(§9) KDM4A RF-MS assay was performed in 384-well plate format in assay buffer (50 mM MES pH
(§10) 7.0). All reagent dispenses were performed using a multidrop reagent dispenser (Thermo). Dilutions
(§11) of compounds were prepared using an ECHO 550 acoustic dispenser (Labcyte) and dry dispensed
(§12) (250 nL) in duplicate into 384-well polypropylene plates (Greiner Bio-One); DMSO (250 nL) was
(§13) dispensed into columns 12 and 2, 4-pyridinedicarboxylic acid (a known JmjC KDM inhibitor)[21]
(§14) (250 nL of 10 mM) was dispensed into column 24 as a no enzyme control. KDM4A (300 nM) was
(§15) minutes. Reaction was initiated by dispensing of 25 µL of assay buffer containing substrate and co-
(§16) factors (200 µM LAA, 20 µM FAS, 20 µM 2OG and 20 µM H3K9Me3 peptide); reactions were
(§17) allowed to progress for 50 minutes, then stopped by addition of 5 µL of 10% (v/v) aqueous formic
(§18) acid. The final assay concentration of DMSO was 0.5% (v/v). Assay plates were transferred to a
(§19) RapidFire RF365 high throughput sampling robot and samples aspirated under vacuum onto a C4
(§20) SPE cartridge. After an aqueous wash step (0.1% v/v formic acid in water) to remove non-volatile
(§21) buffer components from the C4 SPE, peptide was eluted from the C4 SPE in an organic wash step
(§22) cycle of sample aspiration, loading, wash and elution takes approximately 12 seconds. Peptide
(§23) charge states were monitored in the positive ESI mode with a drying gas temperature of 280°C, a
(§24) drying gas flow rate of 13 L/minute, nebulizer gas pressure of 40 PSI, sheath gas temperature of
(§25) 350°C, sheath gas flow rate of 12 L/min and a nozzle voltage of 1000V. Ion chromatogram data
(§26) was extracted for the substrate and the product methyl marks and peak area data for extracted ion
(§27) chromatograms were integrated using RapidFire Integrator software (Agilent). % conversion to the
(§28) dimethyl peptide product was calculated using the equation:
(§29) % conversion = 100 x dimethyl / (dimethyl + trimethyl peptide)
(§30) IC50 data were determined from non -linear regression plots using GraphPad prism 6.0

OGFOD1 = molecular target: T3, OGFOD1 (Homo sapiens, UniProt Q8N543); experiment: MALDI-TOF MS OGFOD1 hydroxylation assay; type: biochemical; details: at 10 μM inhibitor
T3 construct: made in house
T3 sequence (Q8N543 1-542): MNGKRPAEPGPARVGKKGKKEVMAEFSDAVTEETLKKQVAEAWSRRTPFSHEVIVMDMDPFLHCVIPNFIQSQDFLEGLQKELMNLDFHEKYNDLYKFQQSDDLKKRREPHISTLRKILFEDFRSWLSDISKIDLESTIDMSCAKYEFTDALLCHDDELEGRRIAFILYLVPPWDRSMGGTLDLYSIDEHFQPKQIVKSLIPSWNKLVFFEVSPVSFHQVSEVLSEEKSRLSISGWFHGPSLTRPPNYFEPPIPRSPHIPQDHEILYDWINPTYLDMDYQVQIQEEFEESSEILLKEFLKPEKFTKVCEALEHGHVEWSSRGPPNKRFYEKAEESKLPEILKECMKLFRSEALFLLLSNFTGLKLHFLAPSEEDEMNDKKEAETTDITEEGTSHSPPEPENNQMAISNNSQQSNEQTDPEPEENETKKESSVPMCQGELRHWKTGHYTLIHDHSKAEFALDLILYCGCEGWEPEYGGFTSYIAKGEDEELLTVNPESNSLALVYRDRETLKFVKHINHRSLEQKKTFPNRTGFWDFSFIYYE
Protocol: Supplementary Information […]
acid. […] Assay plates were transferred to a
MALDI-TOF MS OGFOD1 Hydroxylation Assays […]
metal affinity chromatography.
The optimized hydroxylation […]
as §1, with “presence” for “Supplementary Information presence”
as §2

FIH = FIH (Homo sapiens, UniProt Q9NWT6); experiment: biochemical
Chain of FIH (Q9NWT6 whole entry): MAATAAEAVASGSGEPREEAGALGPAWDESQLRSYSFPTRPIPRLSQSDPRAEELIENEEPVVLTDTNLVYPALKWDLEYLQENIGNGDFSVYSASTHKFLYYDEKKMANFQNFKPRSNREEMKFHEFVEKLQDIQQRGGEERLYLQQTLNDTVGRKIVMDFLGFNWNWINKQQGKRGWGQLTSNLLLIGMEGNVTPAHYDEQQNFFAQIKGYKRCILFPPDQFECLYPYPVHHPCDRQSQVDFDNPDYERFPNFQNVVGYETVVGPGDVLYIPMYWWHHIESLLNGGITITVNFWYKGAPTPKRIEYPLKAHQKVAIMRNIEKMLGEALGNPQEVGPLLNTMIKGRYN
Protocol: chromatogram data were extracted for the +2 charge state and peak area data integrated using
RapidFire Integrator software (Agilent). The % conversion of the CODD peptide substrate to the +16 hydroxylated peptide was calculated using the equation:
determined from non-linear regression plots using GraphPad prism 6.0.
was normalized to no enzyme control.2
RapidFire-MS FIH hydroxylation assays
in the assay buffer (50 mM Tris-HCl pH 7.8, 50 mM NaCl) was pre - incubated for 15 minutes in
the presence of the inhibitors and the enzyme reaction initiated by addition of 20 μL substrate (200
μM L-ascorbic acid, 20 μM Fe(II) sulfate, 10 μM synthetic ankyrin peptide and 20 μM 2OG).[16]
After 15 minutes the reaction was quenched by addition of 4 μL 10% formic acid and the reaction
transferred to a RapidFire RF360 high throughput sampling robot. Samples were aspirated under
vacuum onto a C4 SPE cartridge. After an aqueous washing step (0.1% (v/v) aqueous formic acid),
to remove non-volatile buffer components from the C4 SPE cartridge , peptide was eluted in an
Ion chromatogram data was extracted for the non -hydroxylated
peptide substrate and the hydroxylated peptide product; the peak area data for extracted ion
chromatograms were integrated using RapidFire Integrator software. % conversion of substrate to
product was calculated in Microsoft excel and IC50 curves generated using Graph pad Prism.

PHD2_181‐426 [3] = molecular target: T4, PHD2_181‐426 (Homo sapiens, UniProt Q9GZT9); experiment: biochemical
T4 sequence (Q9GZT9 181-426): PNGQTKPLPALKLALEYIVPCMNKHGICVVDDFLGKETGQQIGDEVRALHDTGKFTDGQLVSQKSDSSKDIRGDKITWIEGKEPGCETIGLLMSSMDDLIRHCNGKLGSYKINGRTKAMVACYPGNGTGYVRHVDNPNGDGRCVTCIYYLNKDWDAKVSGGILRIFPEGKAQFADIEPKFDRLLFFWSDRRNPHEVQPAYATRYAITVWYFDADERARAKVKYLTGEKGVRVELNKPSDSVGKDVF

PHD2_181‐426 [4] = molecular target: T4, PHD2_181‐426; experiment: biochemical; remark: listed apart in the source
KDM4A [5] = molecular target: T2, KDM4A
Protocol: RapidFire-MS KDM4A hydroxylation assays
as §3, §4, §5, §6, §7, §8, §9, §10, §11, §12, §13, §14, §15, §16, §17, §18, §19, §20, §21, §22, §23, §24, §25, §26, §27, §28, §29, §30

T1 sequence (Q84406 entry or part of it): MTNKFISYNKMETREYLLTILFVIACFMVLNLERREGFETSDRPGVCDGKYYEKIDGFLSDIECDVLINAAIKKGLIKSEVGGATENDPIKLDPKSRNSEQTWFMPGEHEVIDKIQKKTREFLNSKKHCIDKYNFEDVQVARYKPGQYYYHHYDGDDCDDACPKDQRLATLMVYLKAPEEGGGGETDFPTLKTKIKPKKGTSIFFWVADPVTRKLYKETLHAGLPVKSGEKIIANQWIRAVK

Structure (SMILES)	IC50 [1]	cellular HIF‐1α stabilization (Hep‐3B human cell line; 100 μM)	IC50 (KDM4A [2])	OGFOD1 activity relative to control (OGFOD1)	IC50 (FIH)	further results
O=C(Nc1ccc(-c2ccccc2)cc1)c1cnc(-n2cccn2)nc1O [compound 15, N-([1,1’-Biphenyl]-4-yl)-4-hydroxy-2-(1H-pyrazol-1-yl)pyrimidine-5-carboxamide]	28.2 ± 1 µM	strongest activity	> 25 µM			cellular HIF‐1α stabilization (Hep‐3B human cell line; 20 μM): manifested HIF‐1α stabilization
O=C(NCc1ccc(Oc2ccccc2)cc1)c1cnc(-n2cccn2)nc1O [compound 8, 4-Hydroxy-N-(4-phenoxybenzyl)-2-(1H-pyrazol-1-yl)pyrimidine-5-carboxamide]	2 ± 0.1 µM	strongest activity	> 25 µM	83±13%		
O=C(NCc1ccc(-c2ccccc2)cc1)c1cnc(-n2cccn2)nc1O [compound 9, N-([1,1’-Biphenyl]-4-ylmethyl)-4-hydroxy-2-(1H-pyrazol-1-yl)pyrimidine-5-carboxamide]			20 µM		> 25 µM	
O=C(N[C@H](CO)c1ccccc1)c1cnc(-n2cccn2)nc1O [compound 17]		modest HIF‐1α stabilization	21 µM	70±3%		
O=C(NCc1cccc(C(F)(F)F)c1)c1cnc(-n2cccn2)nc1O [compound 13, 4-Hydroxy-2-(1H-pyrazol-1-yl)-N-(3-(trifluoromethyl)benzyl)pyrimidine-5-carboxamide]			> 25 µM	75±1%	> 25 µM	
O=C(NCc1ccc2c(c1)OCO2)c1cnc(-n2cccn2)nc1O [compound 14, N-(Benzo[d][1,3]dioxol-5-ylmethyl)-4-hydroxy-2-(1H-pyrazol-1-yl)pyrimidine-5-carboxamide]			23 µM			IC50 (PHD2_181‐426 [3]): 0.261 ± 0.037 µM; IC50 (PHD2_181‐426 [4]): 0.274 ± 0.034 µM
Cc1nc(C(=O)NCC(=O)O)c(O)c2ccc(Oc3ccccc3)cc12 [compound 1, Roxadustat, reference compound]				100%		
Cc1cccnc1CN1CCC2(CC1)C(=O)N(c1ccc(-c3ccccc3)cc1)C(=O)N2c1ncccn1 [compound 18, reference compound]	> 100 µM	strongest activity			> 25 µM	cellular HIF‐1α stabilization (Hep‐3B human cell line; 20 μM): manifested HIF‐1α stabilization; IC50 (KDM4A [5]): 4.65 µM
O=C(NCc1ccccn1)c1cnc(-n2cccn2)nc1O [compound 11, 4-Hydroxy-2-(1H-pyrazol-1-yl)-N-(pyridin-2-ylmethyl)pyrimidine-5-carboxamide]			17 µM			
O=C(NCc1ccccc1)c1cnc(-n2cccn2)nc1O [compound 10, N-Benzyl-4-Hydroxy-2-(1H-pyrazol-1-yl)pyrimidine-5-carboxamide]			> 25 µM			
CCOC(=O)c1cnc(-n2cccn2)nc1O [compound 6, Ethyl 4-hydroxy-2-(1H-pyrazol-1-yl) pyrimidine-5-carboxylate]			> 25 µM		> 25 µM	vCPH inhibition (in words) [1]: inactive; IC50 (PHD2_181‐426 [3]): > 25 µM; IC50 (PHD2_181‐426 [4]): > 25 µM
O=C(NCC1CCCCC1)c1cnc(-n2cccn2)nc1O [compound 12, N-(Cyclohexylmethyl)-4-hydroxy-2-(1H-pyrazol-1-yl)pyrimidine-5-carboxamide]			> 25 µM		> 25 µM	IC50 (PHD2_181‐426 [3]): > 25 µM; IC50 (PHD2_181‐426 [4]): > 25 µM
O=C(N[C@@H](CO)c1ccccc1)c1cnc(-n2cccn2)nc1O [compound 16]	1.1 ± 0.1 µM	inactive	> 25 µM	41±5%		
